This test relates to isolated mitochondria. Nature of the test: TMRM time course of ΔΨm generation in mitochondria with ETH-129 and calcium. Further details: species or system S. cerevisiae. As for the experimental part: Figure 7. SS peptide effects on Ca^2+-membrane interactions and mitochondrial cation stress. A, profiles of surface potential decay (top) and ion distribution (bottom) based on GCS theory in the presence or absence of SS-31 (see supporting Results H for model description). B, effect of SS peptides on Ca^2+ accumulation at model membrane interfaces. Time course measurements of CG-5N emission were performed in solutions with LUVs (20 mol % TOCL in host POPC background, [lipid]^eff = 100 μM) prebound with SS peptide at the indicated concentration followed by titration of CaCl2 in increments of 1 nmol at 20-s intervals starting at t = 60 s. […] Spectral deconvolution yielded the indicated components (see Fig. S19, A and B), which were used to quantify the area ratios of L2/iso in F (values shown are means ± S.D. (error bars) (n = 3). G, respirometry analysis. Mitochondria (1 mg ml^−1) were treated in the absence or presence of SS-31 (54.4 μM) or CaCl2 (1 mM) as indicated and measured for state 2 respiration (n = 10–12 each).
Second, we measured the effects of SS peptides on mitochondrial Ca^2+ flux. […] In these experiments, we monitored the relative ΔΨm using the potentiometric probe tetramethylrhodamine methyl ester (TMRM) (the emission of which is inversely related to membrane potential; Fig. S17E) and, in parallel, monitored the external [Ca^2+] using CG-5N (Fig. 7C and Fig. S18A). […]

Where a SMILES comes first, the peptide text is derived from it. [ ]: non-standard residue; d: D form. Dmt = Cc1cc(O)cc(C)c1C[C@H](N)C(=O)O

Regarding `Cc1cc(O)cc(C)c1C[C@H](NC(=O)[C@H](N)CCCNC(=N)N)C(=O)N[C@@H](CCCCN)C(=O)N[C@@H](Cc1ccccc1)C(N)=O` [SS-31, D-Arg-2′6′-dimethyl-Tyr-Lys-Phe-NH2] (H-[dR][Dmt]KF-NH2), the “dose response of effect on Ca2+-dependent ΔΨm generation delay” value (25 μM CaCl2, 1 mM NADH, n = 3) was “dose-dependent and saturable”. The “effect on temporal delay in mitochondrial energization (ΔΨm generation) with Ca2+” value (ETH-129, NADH, increasing [Ca2+], TMRM) was “reduced the extent of this temporal delay”.
